Measurements from US20100267561A1, “HERBICIDAL PYRIDAZINONE DERIVATIVES” (priority 2007, published 2010).

What was measured:
Format in all cases: in vivo
[1] = tested on: large crabgrass (Digitaria sanguinalis); assay: Test B pre-/postemergence plant response
Procedure, shortened: (§1)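 Visual scoring from 0 (no effect) to 100 (complete control) against untreated controls was done 13 to 15 days after greenhouse treatment. Chemicals were formulated in a surfactant-containing non-phytotoxic solvent and applied to soil preemergence or to 1- to 4-leaf (2-18 cm) plants postemergence.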

[2] = tested on: cocklebur (Xanthium strumarium); assay: Test B pre-/postemergence plant response; details: for Cocklebur plant response rating: 8 g ai/ha
Procedure, shortened: as §1

[3] = tested on: Russian thistle (Salsola iberica); assay: Test B pre-/postemergence plant response; details: Preemergence
Procedure, shortened: as §1

[4] = tested on: wild mustard (Sinapis arvensis); assay: Test C pre-/postemergence plant response; details: Preemergence
Procedure, shortened: (§2)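 Ratings ran from 0 (no effect) to 100 (complete control) and were made visually against untreated controls 15–25 days after treatment in a controlled growth environment. Application was preemergence and, for some chemicals, postemergence at the 1- to 4-leaf stage (2–18 cm). Formulation was a non-phytotoxic solvent mixture with surfactant.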

[5] = tested on: green foxtail (Setaria viridis); assay: Test C pre-/postemergence plant response; details: Preemergence
Procedure, shortened: as §2

[6] = tested on: Italian ryegrass (Lolium multiflorum); assay: Test C pre-/postemergence plant response; details: Preemergence
Procedure, shortened: as §2

[7] = tested on: downy bromegrass (Bromus tectorum); assay: Test C pre-/postemergence plant response; details: Preemergence
Procedure, shortened: as §2

[8] = tested on: blackgrass (Alopecurus myosuroides); assay: Test C pre-/postemergence plant response; details: Preemergence
Procedure, shortened: as §2

[9] = tested on: winter wheat (Triticum aestivum); assay: Test C pre-/postemergence plant response; details: Preemergence
Procedure, shortened: as §2

[10] = tested on: pigweed (Amaranthus retroflexus); assay: Test C pre-/postemergence plant response; details: Preemergence
Procedure, shortened: as §2

[11] = tested on: winter barley (Hordeum vulgare); assay: Test C pre-/postemergence plant response; details: Preemergence
Procedure, shortened: as §2

[12] = tested on: spring wheat (Triticum aestivum); assay: Test C pre-/postemergence plant response; details: Preemergence
Procedure, shortened: as §2

[13] = tested on: spring barley (Hordeum vulgare); assay: Test C pre-/postemergence plant response; details: Preemergence
Procedure, shortened: as §2

[14] = Postemergence, 16 g ai/ha, scale 0 to 100
[15] = Postemergence, 31 g ai/ha, scale 0 to 100
[16] = Postemergence, 62 g ai/ha, scale 0 to 100, 0 no effect, 100 complete control
[17] = Preemergence, 31 g ai/ha, 0 to 100 scale, 0 no effect, 100 complete control
[18] = Preemergence, 62 g ai/ha, scale 0 to 100
[19] = 31 g ai/ha, scale 0 to 100 (0 no effect, 100 complete control)
[20] = 16 g ai/ha, scale 0 to 100 (0 no effect, 100 complete control)
[21] = 62 g ai/ha, scale 0 to 100, 0 no effect, 100 complete control
[22] = 8 g ai/ha, scale 0 to 100 (0 no effect, 100 complete control)

Cc1cc(-c2ccc(Cl)cc2)nn1-c1c(OC(=O)Oc2ccccc2)cnn(C)c1=O [Compound 54]
15: Plant response rating, Bromegrass, Downy [7, 19] | Plant response rating, Barley, Winter [11, 19]
40: Plant response rating, Foxtail, Green [5, 22]
10: Plant response rating, Barley, Winter [11, 20]
98: Plant response rating, Crabgrass, Large [1, 15] | Plant response rating, Crabgrass, Large [1, 16] | Plant response rating, Foxtail, Green [5, 20] | Plant response rating, Wheat, Spring [12, 21]
65: Crabgrass, Large plant response rating ([1]; 8 g ai/ha, postemergence, 0-100 scale) | Plant response rating, Wheat, Spring [12, 19]
75: Plant response rating, Barley, Winter [11, 21]
35: Plant response rating, Blackgrass [8, 22] | Plant response rating, Wheat, Winter [9, 19]
25: Plant response rating, Wheat, Spring [12, 20] | Plant response rating, Barley, Spring [13, 19]
70: Plant response rating, Blackgrass [8, 20] | Plant response rating, Barley, Spring [13, 21]
20: Plant response rating, Ryegrass, Italian [6, 20]
85: Plant response rating, Crabgrass, Large [1, 14]
80: Plant response rating, Bromegrass, Downy [7, 21]
50: Plant response rating, Wheat, Winter [9, 21]
100: Plant response rating, Foxtail, Green [5, 19] | Plant response rating, Foxtail, Green [5, 21] | Plant response rating, Ryegrass, Italian [6, 19] | Plant response rating, Ryegrass, Italian [6, 21] | Plant response rating, Blackgrass [8, 19] | Plant response rating, Blackgrass [8, 21]
0: Plant response rating, Crabgrass, Large [1, 17] | Plant response rating, Crabgrass, Large [1, 18] | Crabgrass, Large plant response rating ([1]; Preemergence, 8 g ai/ha, scale 0 to 100) | Crabgrass, Large plant response rating ([1]; Preemergence, 16 g ai/ha, scale 0 to 100) | Cocklebur plant response rating ([2]; postemergence, 0-100 scale) | Plant response rating, Cocklebur [2, 14] | Plant response rating, Cocklebur [2, 15] | Plant response rating, Cocklebur [2, 16] | Plant response rating, Cocklebur ([2]; Preemergence, 16 g ai/ha, scale 0 to 100 (0 no effect, 100 complete control)) | Plant response rating, Cocklebur [2, 17] | Plant response rating, Cocklebur [2, 18] | Cocklebur plant response rating ([2]; Preemergence, scale 0 to 100) | Plant response rating, Russian Thistle [3, 19] | Plant response rating, Russian Thistle ([3]; 62 g ai/ha, scale 0 to 100) | Russian Thistle plant response rating ([3]; 8 g ai/ha, scale 0 to 100) | Russian Thistle plant response rating ([3]; 16 g ai/ha, scale 0 to 100) | Plant response rating, Mustard, Wild [4, 20] | Plant response rating, Mustard, Wild [4, 19] | Plant response rating, Mustard, Wild [4, 21] | Plant response rating, Ryegrass, Italian [6, 22] | Plant response rating, Bromegrass, Downy [7, 22] | Plant response rating, Bromegrass, Downy [7, 20] | Plant response rating, Wheat, Winter [9, 22] | Plant response rating, Wheat, Winter [9, 20] | Plant response rating, Pigweed [10, 22] | Plant response rating, Pigweed [10, 20] | Plant response rating, Pigweed [10, 19] | Plant response rating, Pigweed [10, 21] | Plant response rating, Barley, Winter [11, 22] | Plant response rating, Wheat, Spring [12, 22] | Plant response rating, Barley, Spring [13, 22] | Plant response rating, Barley, Spring [13, 20]
